Assay: Weight loss rate by thermogravimetric analysis (TG-DTA) to 300° C. under nitrogen
Assay type: physicochemical
Conditions: room temperature to 300° C. at 10° C./min, nitrogen gas atmosphere (100 ml/min)
Protocol: Regarding requirement (c), from the viewpoint of the staining of a mold, the emitted amount of VOC, and the weather resistance, the weight loss rate measured in a thermogravimetric analysis at a temperature of 300° C. under a nitrogen gas atmosphere preferably is less than 5% by weight, and more preferably is less than 3% by weight. The weight loss rate measured by the thermogravimetric analysis of a hindered amine light stabilizer (D) to be used for the present invention is a value determined by using a thermo gravimetry differential thermal analyzer (TG-DTA). Described concretely, it is a weight loss rate determined using a thermobalance when the temperature of a hindered amine light stabilizer (D) is increased from room temperature to 300° C. at a rate of 10° C. per minute under a nitrogen gas atmosphere (in a nitrogen flow at a flow rate of 100 ml/min).
From the viewpoint of inhibiting mold staining, the weight loss rate of the nonionic antistatic agent (E) to be used for the present invention measured by thermogravimetric analysis executed at a temperature of 300° C. under a nitrogen atmosphere preferably is less than 20% by weight, and more preferably 5 to 15% by weight. The weight loss rate is determined by the use of a thermo gravimetry differential thermal analyzer (TG-DTA). Described concretely, it is a weight loss rate determined using a thermobalance when the temperature of the nonionic antistatic agent (E) is increased from room temperature to 300° C. at a rate of 10° C. per minute under a nitrogen gas atmosphere (in a nitrogen flow at a flow rate of 100 ml/min).
The weight loss by thermogravimetric analysis (TG-DTA) of a light stabilizer was measured with a thermo gravimetry differential thermal analyzer from room temperature to 300° C. at a temperature increasing rate of 10° C./min under a nitrogen gas atmosphere (gas flow rate: 100 ml/min). […]

Weight loss rate by TG-DTA [% by weight] | Molecule
19.6 | CC1(C)CC(OC(=O)CCCCCCCCC(=O)OC2CC(C)(C)NC(C)(C)C2)CC(C)(C)N1 [Example D-2, Bis(2,2,6,6-tetramethyl-4-piperidyl) sebacate]
31.6 | CC(C)(C)c1ccc(OC(=O)c2cc(C(C)(C)C)c(O)c(C(C)(C)C)c2)c(C(C)(C)C)c1 [Example D-3, 2,4-di-tert-butylphenyl 3,5-di-tert-butyl-4-hydroxybenzoate]
23.8 | Stearic acid monoglyceride [Example E-1]
